From publication PMC12412324, “Design, synthesis, and evaluation of novel pinane-based thiazolidione derivatives with anti-glioblastoma activity” (Journal of Enzyme Inhibition and Medicinal Chemistry, 2025)

Legend:
Format in all cases: cell-based
U87 = experiment: CCK-8 cell viability assay, U87; details: CCK-8, 72 h, mean ± SD of three independent experiments
Procedure: (§1) The U87MG cell line (catalogue iCell-h224) and U251MG cell line (catalogue iCell-h219) were purchased from iCell Bioscience Inc (Shanghai) cell bank. T98G cell line was obtained from Yining Zhang’s group. All cells were cultured in DMEM supplemented with 10% (v/v) FBS and penicillin-streptomycin in a humidified incubator at 37 °C under 5% CO2. The different compounds were dissolved in DMSO at the concentration of 10 mM and diluted in serum-free medium. The GBM cells were seeded into 96-well microplates at the density of 6000 cells/well and incubated for 24 h. Fresh media supplemented with different concentrations of the compounds were added, and the cells were cultured for 72 h. The CCK-8 reagent (TargetMol, C0005) was added to each well and the cells were incubated for 4 h at 37 °C. […] the absorbance was measured at […] using a microplate reader (Genios Tecan). An untreated control group was included and its viability was set as 100%. IC50 value of the two probes was calculated using GraphPad Prism 5.0.

LO2 = experiment: CCK-8 cytotoxicity, normal human cell line LO2
T98G = experiment: CCK-8 cell viability assay, T98G; details: CCK-8, 72 h, mean ± SD of three independent experiments
Procedure: as §1

U251 = experiment: CCK-8 cell viability assay, U251; details: CCK-8, 72 h, mean ± SD of three independent experiments
Procedure: as §1

[1] = L02, mean ± SD of three independent experiments

Row | SMILES | IC50 (U87; Homo sapiens, U-87 MG, 72 h) [µM] | IC50 (U251; Homo sapiens, U-251, 72 h) [µM] | IC50 (U87) [µM] | IC50 (U251) [µM] | IC50 (LO2; [1]) [µM] | IC50 (T98G; Homo sapiens, T98G, 72 h) [µM] | IC50 (LO2; mean ± SD of three independent experiments) [µM] | IC50 (T98G) [µM]
1 | COc1ccc(C=C2SC(=NN=CC3=CCC4CC3C4(C)C)N(C)C2=O)c(O)c1 (stereo not shown) [C13, 2-(((6,6-Dimethylbicyclo[3.1.1]hept-2-en-2-yl)methylene)hydrazineylidene)-5–(2-hydroxy-4-methoxybenzylidene)-3-methylthiazolidin-4-one] | 5.71 ± 0.23 | 6.65 ± 0.75 | – | – | > 50 | 5.54 ± 0.98 | – | –
2 | COc1ccc(C=C2SC(=NN=CC3=CCC4CC3C4(C)C)N(C)C2=O)cc1 (stereo not shown) [C1, 2-(((6,6-Dimethylbicyclo[3.1.1]hept-2-en-2-yl)methylene)hydrazineylidene)-5–(4-methoxybenzylidene)-3-methylthiazolidin-4-one] | 13.5 ± 0.43 | 12.1 ± 0.31 | – | – | > 50 | 9.93 ± 0.11 | – | –
3 | CN1C(=O)C(=Cc2ccc(Cl)cc2)SC1=NN=CC1=CCC2CC1C2(C)C (stereo not shown) [C7, 5–(4-Chlorobenzylidene)-2-(((6,6-dimethylbicyclo[3.1.1]hept-2-en-2-yl)methylene) hydrazineylidene)-3-methylthiazolidin-4-one] | > 50 | 36.8 ± 0.43 | – | – | > 50 | 33.4 ± 0.77 | – | –
4 | CSc1ccc(C=C2SC(=NN=CC3=CCC4CC3C4(C)C)N(C)C2=O)cc1 (stereo not shown) [C3, 2-(((6,6-Dimethylbicyclo[3.1.1]hept-2-en-2-yl)methylene)hydrazineylidene)-3-methyl-5–(4-(methylthio)benzylidene)thiazolidin-4-one] | 12.3 ± 0.65 | 15.2 ± 0.32 | – | – | > 50 | 16.7 ± 0.67 | – | –
5 | CN1C(=O)C(=Cc2ccc(N(C)C)cc2)SC1=NN=CC1=CCC2CC1C2(C)C (stereo not shown) [C4, 5–(4-(Dimethylamino)benzylidene)-2-(((6,6-dimethylbicyclo[3.1.1]hept-2-en-2-yl)methylene)hydrazineylidene)-3-methylthiazolidin-4-one] | 7.56 ± 0.76 | 9.7 ± 0.64 | – | – | > 50 | 8.8 ± 0.31 | – | –
6 | CCN(CC)c1ccc(C=C2SC(=NN=CC3=CCC4CC3C4(C)C)N(C)C2=O)cc1 (stereo not shown) [C8, 5–(4-(Diethylamino)benzylidene)-2-(((6,6-dimethylbicyclo[3.1.1]hept-2-en-2-yl)methylene) hydrazineylidene)-3-methylthiazolidin-4-one] | 42.2 ± 0.46 | 27.2 ± 0.62 | – | – | > 50 | 38.1 ± 0.78 | – | –
7 | COc1ccc(C=C2SC(=NN=CC3=CCC4CC3C4(C)C)N(C)C2=O)cc1 (stereo not shown) [C2, 2-(((6,6-Dimethylbicyclo[3.1.1]hept-2-en-2-yl)methylene)hydrazineylidene)-5–(4-methoxybenzylidene)-3-methylthiazolidin-4-one] | – | – | 11.2 ± 0.26 | 14 ± 0.71 | – | – | > 50 | 10.1 ± 0.8

Now from value to compound, other results behind:

Row | IC50 (U87; Homo sapiens, U-87 MG, 72 h) [µM] | IC50 (U251; Homo sapiens, U-251, 72 h) [µM] | IC50 (U87) [µM] | IC50 (U251) [µM] | SMILES | IC50 (LO2; [1]) [µM] | IC50 (T98G; Homo sapiens, T98G, 72 h) [µM] | IC50 (LO2; mean ± SD of three independent experiments) [µM] | IC50 (T98G) [µM]
8 | 9.37 ± 0.35 | 8.01 ± 0.79 | – | – | CCOc1cc(C=C2SC(=NN=CC3=CCC4CC3C4(C)C)N(C)C2=O)ccc1O (stereo not shown) [C12, 2-(((6,6-Dimethylbicyclo[3.1.1]hept-2-en-2-yl)methylene)hydrazineylidene)-5–(3-ethoxy-4-hydroxybenzylidene)-3-methylthiazolidin-4-one] | > 50 | 7.1 ± 0.51 | – | –
9 | 9.18 ± 0.2 | 6.23 ± 0.41 | – | – | COc1cc(O)ccc1/C=C1/SC(NN=CC2=CCC3CC2C3(C)C)N(C)C1=O (stereo not shown) [C17, 2–(2-((6,6-Dimethylbicyclo[3.1.1]hept-2-en-2-yl)methylene)hydrazineyl)-5-((E)-4-hydroxy-2-methoxybenzylidene)-3-methylthiazolidin-4-one] | > 50 | 5.1 ± 0.26 | – | –
10 | 5.83 ± 0.56 | 7.14 ± 0.11 | – | – | Cc1cc(/C=C2/SC(NN=CC3=CCC4CC3C4(C)C)N(C)C2=O)ccc1O (stereo not shown) [C16, 2–(2-((6,6-Dimethylbicyclo[3.1.1]hept-2-en-2-yl)methylene)hydrazineyl)-5-((E)-4-hydroxy-3-methylbenzylidene)-3-methylthiazolidin-4-one] | > 50 | 6.63 ± 0.32 | – | –
11 | 14.4 ± 0.73 | 11.6 ± 0.89 | – | – | CN1C(=O)/C(=C\c2ccc(O)cc2F)SC1NN=CC1=CCC2CC1C2(C)C (stereo not shown) [C14, 2–(2-((6,6-Dimethylbicyclo[3.1.1]hept-2-en-2-yl)methylene)hydrazineyl)-5-((E)-2-fluoro-4-hydroxybenzylidene)-3-methylthiazolidin-4-one] | > 50 | 14.8 ± 0.34 | – | –
12 | 13.6 ± 0.21 | 14.8 ± 0.1 | – | – | COc1ccc(C=C2SC(=NN=CC3=CCC4CC3C4(C)C)N(C)C2=O)cc1O (stereo not shown) [C11, 2-(((6,6-Dimethylbicyclo[3.1.1]hept-2-en-2-yl)methylene)hydrazineylidene)-5–(3-hydroxy-4-methoxybenzylidene)-3-methylthiazolidin-4-one] | > 50 | 12 ± 0.15 | – | –
13 | 34.1 ± 0.57 | 36.7 ± 0.32 | – | – | Cc1ccc(O)c(C=C2SC(=NN=CC3=CCC4CC3C4(C)C)N(C)C2=O)c1 (stereo not shown) [C9, 2-(((6,6-Dimethylbicyclo[3.1.1]hept-2-en-2-yl)methylene)hydrazineylidene)-5–(2-hydroxy-5-methylbenzylidene)-3-methylthiazolidin-4-one] | > 50 | 32.11 ± 0.21 | – | –
14 | 9.12 ± 0.43 | 9.01 ± 0.34 | – | – | Cc1cc(O)ccc1/C=C1/SC(NN=CC2=CCC3CC2C3(C)C)N(C)C1=O (stereo not shown) [C15, 2–(2-((6,6-Dimethylbicyclo[3.1.1]hept-2-en-2-yl)methylene)hydrazineyl)-5-((E)-4-hydroxy-2-methylbenzylidene)-3-methylthiazolidin-4-one] | > 50 | 7.63 ± 0.65 | – | –
15 | 9.86 ± 0.09 | 8.29 ± 0.78 | – | – | CN1C(=O)C(=Cc2ccc(O)c(Cl)c2)SC1=NN=CC1=CCC2CC1C2(C)C (stereo not shown) [C10, 5–(3-Chloro-4-hydroxybenzylidene)-2-(((6,6-dimethylbicyclo[3.1.1]hept-2-en-2-yl)methylene)hydrazineylidene)-3-methylthiazolidin-4-one] | > 50 | 8.69 ± 0.17 | – | –
16 | 9.37 ± 0.43 | 10.2 ± 0.65 | – | – | COc1cc(C=C2SC(=NN=CC3=CCC4CC3C4(C)C)N(C)C2=O)ccc1O (stereo not shown) [C6, 2-(((6,6-Dimethylbicyclo[3.1.1]hept-2-en-2-yl)methylene)hydrazineylidene)-5–(4-hydroxy-3-methoxybenzylidene)-3-methylthiazolidin-4-one] | > 50 | 7.5 ± 0.98 | – | –
